This note sets out measurements from patent US10399980B2, “Purinones as ubiquitin-specific protease 1 inhibitors” (FORMA Therapeutics, Inc., priority 2015, dated 2019).

Structures are written as SMILES. pIC50: −log10 of the molar value.

For the assay, the target named is USP1, construct USP1 (1-785, GG670, 671AA)/UAF1 (1-677)-Flag (Homo sapiens (Human), UniProt O94782, G670A/G671A). Kind of assay: Ubiquitin-Rhodamine 110 assay for USP1 activity, follow-up IC50 studies. The note with it: USP1/UAF1, 30 min preincubation. The class given is biochemical. How it is done: Example 53: Ubitquin-Rhodamine 110 Assay for USP1 Activity
Nanoliter quantities of either an 8-point or 10-point, 3-fold serial dilution in DMSO was pre-dispensed into assay plates (Perkin Elmer, ProxiPlate-384 F Plus, #6008269) for a final test concentration range of either 25 μM to 11 nM or 25 μM to 1.3 nM, respectively. The final concentration of the enzyme (USP1, construct USP1 (1-785, GG670, 671AA)/UAF1 (1-677)-Flag; Viva) in the assay was 25 pM. Final substrate (Ub-Rh110; Ubiquitin-Rhodamine 110, R&D Systems #U-555) concentration was 25 nM with [Ub-Rh110]<<Km. […] Plates were incubated stacked for 20 minutes at room temperature before 5 μL of stop solution (final concentration of 10 mM citric acid in assay buffer (Sigma, #251275-500G)). Fluorescence was read on the Envision (Excitation at 485 nm and Emission at 535 nm; Perkin Elmer) or on the PheraSTAR (Excitation at 485 nm and Emission at 535 nm; BMG Labtech).
For both assay formats data were reported as percent inhibition compared with control wells based on the following equation: % inh=[1−((FLU−AveLow)/(AveHigh−AveLow))]×100 where FLU=measured Fluorescence, AveLow=average Fluorescence of no enzyme control (n=16), and AveHigh=average Fluorescence of DMSO control (n=16). IC50 values were determined by curve fitting of the standard 4 parameter logistic fitting algorithm included in the Activity Base software package: IDBS XE Designer Model205. Data is fitted using the Levenburg Marquardt algorithm.

The term pIC50 denotes the IC50 on a negative log10 scale, so that one unit is a factor of ten.

Chain of USP1, construct USP1 (1-785, GG670, 671AA)/UAF1 (1-677)-Flag (O94782 whole entry G670A/G671A): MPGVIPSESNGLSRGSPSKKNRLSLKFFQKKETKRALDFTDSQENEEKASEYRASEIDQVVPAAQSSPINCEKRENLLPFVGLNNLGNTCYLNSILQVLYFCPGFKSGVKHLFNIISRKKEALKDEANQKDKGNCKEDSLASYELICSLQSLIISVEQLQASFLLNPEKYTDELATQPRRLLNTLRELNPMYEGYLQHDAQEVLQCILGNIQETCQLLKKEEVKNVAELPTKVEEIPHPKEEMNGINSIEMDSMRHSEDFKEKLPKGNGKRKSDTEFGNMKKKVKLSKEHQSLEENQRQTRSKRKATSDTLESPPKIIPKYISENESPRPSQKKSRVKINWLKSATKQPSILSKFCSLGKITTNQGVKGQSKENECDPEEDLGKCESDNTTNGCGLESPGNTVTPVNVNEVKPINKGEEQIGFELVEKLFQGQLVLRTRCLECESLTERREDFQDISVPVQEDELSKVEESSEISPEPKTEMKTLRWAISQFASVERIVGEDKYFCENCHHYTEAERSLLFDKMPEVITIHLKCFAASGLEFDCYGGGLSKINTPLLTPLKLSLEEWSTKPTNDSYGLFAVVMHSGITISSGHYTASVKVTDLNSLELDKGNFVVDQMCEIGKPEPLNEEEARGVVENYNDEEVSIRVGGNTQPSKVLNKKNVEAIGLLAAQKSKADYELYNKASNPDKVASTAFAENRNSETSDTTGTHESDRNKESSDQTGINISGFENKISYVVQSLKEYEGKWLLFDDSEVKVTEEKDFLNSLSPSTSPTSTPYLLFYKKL
Chain of USP1, construct USP1 (1-785, GG670, 671AA)/UAF1 (1-677)-Flag (Q8TAF3 whole entry partner): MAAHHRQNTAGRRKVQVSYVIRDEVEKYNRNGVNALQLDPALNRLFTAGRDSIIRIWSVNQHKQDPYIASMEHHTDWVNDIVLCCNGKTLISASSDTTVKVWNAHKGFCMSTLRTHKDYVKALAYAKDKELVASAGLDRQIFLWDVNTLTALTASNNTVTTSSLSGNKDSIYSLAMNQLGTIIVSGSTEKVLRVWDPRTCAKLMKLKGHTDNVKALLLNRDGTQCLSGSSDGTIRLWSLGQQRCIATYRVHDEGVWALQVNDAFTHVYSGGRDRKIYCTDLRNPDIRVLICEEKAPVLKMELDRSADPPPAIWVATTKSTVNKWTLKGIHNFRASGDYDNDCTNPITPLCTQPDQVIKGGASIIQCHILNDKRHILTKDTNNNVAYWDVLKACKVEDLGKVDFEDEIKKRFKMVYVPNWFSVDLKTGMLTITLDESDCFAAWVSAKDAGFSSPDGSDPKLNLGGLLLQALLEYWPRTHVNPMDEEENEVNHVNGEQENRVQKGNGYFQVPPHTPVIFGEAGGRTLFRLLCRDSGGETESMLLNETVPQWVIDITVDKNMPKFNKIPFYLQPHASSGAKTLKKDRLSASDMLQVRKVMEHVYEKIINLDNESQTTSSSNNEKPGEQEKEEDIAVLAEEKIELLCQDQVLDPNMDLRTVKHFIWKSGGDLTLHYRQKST

With `Cc1cc(C)n([C@H]2CC[C@@H](Cn3c(=O)n(C)c4cnc(-c5ccccc5C(C)C)nc43)CC2)n1` [I-111, 9-(((1s,4s)-4-(3,5-dimethyl-1H-pyrazol-1-yl)cyclohexyl)methyl)-2-(2-isopropylphenyl)-7-methyl-7,9-dihydro-8H-purin-8-one], the pIC50 was 6.70 to 7.30.
For the compound `Cn1cc(C(F)(F)F)nc1-c1ccc(Cn2c(=O)n(C)c3cnc(-c4ccccc4C4CC4)nc32)cc1` [I-70, 2-(2-cyclopropylphenyl)-7-methyl-9-(4-(1-methyl-4-(trifluoromethyl)-1H-imidazol-2-yl)benzyl)-7,9-dihydro-8H-purin-8-one], the pIC50 was > 7.30.
Take `Cc1cc(C)n([C@H]2CC[C@H](Cn3c(=O)[nH]c4cnc(-c5ccccc5C(C)C)nc43)CC2)n1` [I-213, 9-(((1r,4r)-4-(3,5-dimethyl-1H-pyrazol-1-yl)cyclohexyl)methyl)-2-(2-isopropylphenyl)-7,9-dihydro-8H-purin-8-one]: the negative-log IC50 (pIC50) was 5.70 to 6.70.
